Experimental data reported in ChEMBL document CHEMBL5143521, “Identification of a selective BRD4 PROTAC with potent antiproliferative effects in AR-positive prostate cancer based on a dual BET/PLK1 inhibitor” (Eur J Med Chem, 2022).
Active and inactive are the calls of the source. No cut-off for these calls is given here.

Columns and labels:
[1] = target: T1, Protein cereblon/Bromodomain-containing protein 4 (Homo sapiens) (UniProt O60885+Q96SW2); experiment: Protac activity at BRD4/CRBN in AR-positive human VCaP cells assessed as degradation of BRD4 at 1 uM measured after 24 hrs in presence of MLN4924 by Western blot analysis; assay type: cell-based
CWR22R [2] = experiment: Induction of apoptosis in AR-positive human 22Rv1 cells assessed as upregulation of cleaved caspase-3 level measured after 72 hrs by Annexin V-FITC/PI staining based flow cytometry method; assay type: functional, cell-based; conditions: dose 100-1000 nM, DDE = dose-dependent effect
CWR22R [3] = experiment: Induction of cell cycle arrest in AR-positive human 22Rv1 cells assessed as downregulation of CDK4 expression at 100 to 1000 nM measured after 72 hrs by Western blot analysis; assay type: functional, cell-based; conditions: dose 100-1000 nM
[4] = target: T1, Protein cereblon/Bromodomain-containing protein 4 (Homo sapiens); experiment: Protac activity at BRD4/CRBN in human VCaP cells assessed as degradation of BRD4 by measuring downregulation of BRD4 expression level at 10 nM incubated for 24 hrs by immunoblotting analysis; assay type: cell-based
LNCaP = experiment: Antiproliferative activity against AR-positive harmone sensitive human LNCaP cells assessed as reduction in cell viability at 100 to 300 nM incubated for 3 days followed by compound washout and measured after 8 days; assay type: functional; conditions: dose 100-300 nM, time 3 day
CWR22R [5] = experiment: Antiproliferative activity against AR-positive human 22Rv1 cells assessed as reduction in cell viability measured after 4 days by MTT assay; assay type: functional, cell-based; conditions: 22Rv1, 96 h
[6] = target: T1, Protein cereblon/Bromodomain-containing protein 4 (Homo sapiens); experiment: Protac activity at BRD4/CRBN in AR-positive human 22Rv1 cells assessed as degradation of BRD4 by measuring downregulation of BRD4 expression level measured after 24 hrs by Western blot analysis; assay type: cell-based; conditions: dose 1-10000 nM, DDE = dose-dependent effect
CWR22R [7] = experiment: Downregulation of c-Myc […] expression level in AR-positive human 22Rv1 cells measured after 24 hrs by Western blot analysis; assay type: functional, cell-based; conditions: dose 1-10000 nM, DDE = dose-dependent effect
[8] = target: T1, Protein cereblon/Bromodomain-containing protein 4 (Homo sapiens); experiment: Protac activity at BRD4/CRBN in AR-positive human 22Rv1 cells assessed as degradation of BRD4 at 100 nM measured after 3 hrs in presence of cycloheximide by Western blot analysis; assay type: cell-based
VCaP [9] = experiment: Inhibition of c-Myc expression level in human VCap cells at 10 nM incubated for 24 hrs by immunoblotting analysis; assay type: functional, cell-based
[10] = target: Bromodomain-containing protein 4 (Homo sapiens, UniProt O60885); experiment: Inhibition of BRD4 (unknown origin) by alpha-screen assay
VCaP [11] = experiment: Downregulation of PSA protein expression in AR-positive human VCaP cells at 100 nM measured after 48 hrs by Western blot analysis; assay type: functional, cell-based

T1 sequence (Q96SW2 whole entry, looked up, other chains not shown): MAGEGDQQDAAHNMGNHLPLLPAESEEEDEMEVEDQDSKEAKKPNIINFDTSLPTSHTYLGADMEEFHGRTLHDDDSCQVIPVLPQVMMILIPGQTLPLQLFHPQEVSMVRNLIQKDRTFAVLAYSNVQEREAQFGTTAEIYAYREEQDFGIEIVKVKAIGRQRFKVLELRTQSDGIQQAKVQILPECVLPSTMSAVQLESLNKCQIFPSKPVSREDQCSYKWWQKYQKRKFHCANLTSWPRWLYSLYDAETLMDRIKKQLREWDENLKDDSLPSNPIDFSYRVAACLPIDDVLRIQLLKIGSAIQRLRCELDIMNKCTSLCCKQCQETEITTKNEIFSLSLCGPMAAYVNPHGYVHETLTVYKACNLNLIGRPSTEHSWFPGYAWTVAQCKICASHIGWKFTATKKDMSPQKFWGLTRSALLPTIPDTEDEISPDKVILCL

With `CC[C@@H]1c2nnc(C)n2-c2cnc(Nc3ccc(C(=O)NC4CCN(C(=O)COc5cccc6c5C(=O)N(C5CCC(=O)NC5=O)C6=O)CC4)cc3OC)nc2N1CC1CCCCC1` (some centres not stated) the Activity [1] was “Active”, the Activity (CWR22R [2]) was “Dde” and the Activity (CWR22R [3]) was “Active”. The Activity [4] was “Active”, the “inhibition (INH)” value (LNCaP) was 100% and the IC50 (CWR22R [5]) was 53 nM. For the same molecule, the Activity [6] was “Dde”, the Activity (CWR22R [7]) was “Dde” and the Activity [8] was “Active”. The inhibition (VCaP [9]) was “Active”, the IC50 [10] was 254 nM and the Activity (VCaP [11]) was “Active”.
